Data taken from patent publication US11980620B2, “Compounds and methods for treatment of Diamond Blackfan anemia” (THE CHILDREN'S MEDICAL CENTER CORPORATION, priority 2017, dated 2024).

Test system: DBA CD34-5F cells
Test: Erythroid differentiation (CD71+GlyA+) of CD34-5F cells from DBA iPSCs
Assay type: cell-based, human
Description: (FIG. 8A) The distribution of 1440 compounds by Z-score in a proliferation-based screen of the Sigma LOPAC chemical library. DBA CD34-5F cells were plated in erythroid-promoting conditions in 384-well format. Erythroid proliferation was measured in the presence of 5 μM of each compound, and converted into Z-scores. The screen was carried out with 3 RPS19 DBA and 2 normal iPSC lines. (FIG. 88) Dose-dependent effect of SMER28 (in μM) on erythroid differentiation, shown as the absolute number of erythroid cells in each drug-treated condition normalized to vehicle (DMSO) control. Erythroid cells were analyzed on day 9 of differentiation using markers CD71 and GlyA. Dose curve was performed with DBA (n=5) and control (n=3) iPSCs. Non-linear regression curve was plotted to calculate EC50 values. (FIGS. 8C and 8D) Dose-dependent effect of SMER28 (in μM) on erythroid differentiation of CB CD34^+ RPS19^+ cells. (FIG. 8C) Absolute number of erythroid cells (analyzed on day 9) in each drug-treated condition normalized to vehicle (DMSO) control (4 independent experiments). Non-linear regression curve was plotted to calculate EC50 values. (FIG. 8D) Representative flow plots of control (shLUC) and RPS19th cells treated with DMSO or increasing doses of SMER28.
(FIG. 12A) Erythroid differentiation of control and DBA CD34-5F cells treated with DMSO vehicle or SMER28 (10 μM) during the initial CD34^+ progenitor phase (day 0-4 of differentiation), or stage I of erythroid culture (day 4-9 of differentiation). Percent of erythroid cells after stage I of differentiation is indicated in top left for each condition, and quantitated in (FIG. 12B). Data are shown as mean f s.e.m. of 4 independent experiments, with 2 control and 4 DBA iPSCs. (FIG. 12C) Same as (FIG. 12A) for CB CD34+ cells transduced with shRPS19 hairpins. GFP^+ RPS19^sh and GFP^− control cells were quantitated separately. […] (FIG. 12D) RBC pellets at the end of stage III initiated with equal numbers of CD34-5F or CB progenitors. SMER28 was added at […]. (FIG. 12E) May-Grunwald-Giemsa stain of erythroid cells from CB CD34^+ at end of stage III. Arrows indicate enucleated RBCs, which are quantitated by flow cytometry. (FIG. 12F) Quantitation of the enucleation efficiency (left) of GLYA^+ cells. Data in FIGS. 12E-12F represents 3 independent experiments. For all panels, *p<0.05, **p<0.01.
Erythroid differentiation. Differentiation was performed essentially as described (Lee et al., 2015). CD34 expansion phase (4 days): To initiate differentiation CD34-5F cells were cultured in progenitor media without Dox. Stage I (5 days): Media were changed to: IMDM+1% BSA (Gibco), 20% FBS (Stem Cell Technologies), 1 mM L-glutamine, penicillin/streptomycin, 500 μg/ml h-transferrin (Sigma), 10 μg/ml human insulin (CellSciences), 1 μM β-estradiol, 1 μM Dex, 6U Epo (CellSciences), 100 μg/ml SCF, and 5 μg/ml IL-3. Cells were seeded at a density of <1×10^5 cells/ml in 24-well plates. Stage 11 (4 days). Media were changed to: IMDM+1% BSA, 20% FBS, 1 mM L-glutamine, penicillin/streptomycin, 500 μg/ml h-transferrin, 10 μg/ml human insulin, 6U Epo, and 50 μg/ml SCF. Cells were seeded at a density of <2×10^5 cells/ml in 24-well plates. Stage III (10 days) Media were changed to: IMDM+1% BSA, 20% FBS, 1 mM L-glutamine, penicillin/streptomycin, 500 μg/ml h-transferrin, 10 μg/ml human insulin, and 2U Epo. Cells were seeded at a density of <5×10^5 cells/ml in 24-well plates.
Drug treatments. […]

## C=CCNc1ncnc2ccc(Br)cc12 [SMER28, 6-Bromo-N-2-propenyl-4-quinazolinam]
10 μM, treated only during initial expansion phase (day 0-4), DBA progenitors
  output of GlyA+ cells: increased output
10 μM, treatment during stage I (day 4-9)
  CD71+GlyA- pre-erythroblasts: expanded
10 μM, treatment of erythroblasts during stage I (day 4-9)
  number of GlyA+ cells: did not significantly increase
DBA iPSCs
  effect on number of erythroid cells normalized to vehicle: 9.8 fold
Homo sapiens, iPSC, 216 h, RPS19+/- and RPL5 DBA iPSCs, day 9, normalized to DMSO, 95% confidence interval 0.63 to 2.37 μM, read-out: EC50, absolute number of CD71+GlyA+ erythroid cells
  EC50: 1.5 µM
